Values after ≈ are worked out from the molar mass of the structure shown.
Columns and labels:
[1] = system: S. epidermidis ATCC 12228; assay: Planktonic susceptibility (MIC/MBC), 96-well broth microdilution; type: cell-based, Staphylococcus epidermidis; settings: Staphylococcus epidermidis; for MBC: ATCC12228; for MIC: ATCC12228, planktonic, overnight 37°C in MHB
Procedure: (§1) All bacterial strains subjected to testing had been stored at −70°C prior to the experiment. The experiment commenced by streaking small amounts of the frozen bacterial samples onto Muller-Hinton agar (MHA) culture medium (BD Bacto, Oxoid, Basingstoke, UK Cat# X296B) and allowing for overnight incubation. Bacteria were re-cultured on MHA plates as required to confirm colony morphology and lack of contamination. Strains tested were P. aeruginosa ATCC 27853, E. coli ATCC 25922, Staphylococcus aureus ATCC 25923, MRSA ATCC 33591, S. epidermidis ATCC 12228, Klebsiella pneumoniae ATCC, P. mirabilis ATCC 35659, and 10 clinical isolates of MRSA from Foothills Hospital, Calgary, Canada. To prepare for susceptibility testing, a protocol modified from Lemire et al was used ([28]). MHB was swab-inoculated from MHA colonies and shake-incubated until turbid. Dilution of the broth with 0.9% saline was performed as necessary to match a 1.0 McFarland standard.
(§2) MIC and MBC assessments were conducted on all bacterial strains using 96-well microtiter plates. To prepare the wells for bacteria, serial dilutions of the antibacterial agents were carried out along the rows of two microtiter plates. The antibacterials were 2-fold diluted with Mueller-Hinton broth (MHB) in each column, reaching a volume of 75 µL. The 1.0 McFarland standard was diluted 15-fold in MHB, and 75 µL of inoculum was added to the wells treated with antibacterials, resulting in a total volume of 150 µL. The microtiter plates were covered and then shake-incubated overnight at 150 rpm and 37°C. MIC was determined based on visible bacterial growth. In cases of antibacterial opacity or ambiguous results, streaking of well cultures on MHA, overnight incubation, and subsequent comparison with controls were performed. MBC was determined by transferring 3 µL of culture from all MIC microtiter plate wells to 147 µL of Mueller-Hinton broth in fresh plates. These plates were shake-incubated overnight at 150 rpm and 37°C, and bacterial growth was visually inspected.

[2] = system: Staphylococcus aureus ATCC 25923; assay: as above; type: cell-based; settings: Staphylococcus aureus, ATCC25923, S. aureus; for MIC: planktonic, overnight 37°C in MHB
Procedure: as §1, §2

E. coli ATCC 25922 = assay: as above; type: cell-based; settings: Escherichia coli; for MBC: ATCC25922; for MIC: ATCC25922, planktonic, overnight 37°C in MHB
Procedure: as §1, §2

P. aeruginosa ATCC 27853 = assay: as above; type: cell-based; settings: Pseudomonas aeruginosa; for MBC: ATCC27853; for MIC: ATCC27853, planktonic, overnight 37°C in MHB
Procedure: as §1, §2

P. mirabilis ATCC 35659 = assay: as above; type: cell-based; settings: Proteus mirabilis; for MBC: ATCC35659; for MIC: ATCC35659, planktonic, overnight 37°C in MHB
Procedure: as §1, §2

[3] = system: Klebsiella pneumoniae ATCC; assay: as above; type: cell-based; settings: K. pneumonia; for MIC: planktonic, overnight 37°C in MHB
Procedure: as §1, §2

[4] = system: 10 clinical isolates of MRSA from Foothills Hospital, Calgary; assay: Planktonic susceptibility (MIC/MBC) of MRSA clinical isolates; type: cell-based, methicillin-resistant S. aureus; settings: Staphylococcus aureus
Procedure: as §1
as §2, with “In cases of antibacterial opacity or ambiguous results, streaking of well cultures on MHA, overnight incubation, and subsequent comparison with controls were performed.” left out

Gram-negative pathogens = system: Gram-negative pathogens; set-up: method as in PMID 12534815; settings: cited from earlier work
Gram-positive bacteria = system: Gram-positive bacteria; set-up: method as in PMID 12534815; settings: cited from earlier work
MRSA ATCC 33591 = assay: Planktonic susceptibility (MIC/MBC), 96-well broth microdilution; type: cell-based, methicillin-resistant S. aureus; settings: Staphylococcus aureus, MRSA reference strain
Procedure: as §1
as §2, with “In cases of antibacterial opacity or ambiguous results, streaking of well cultures on MHA, overnight incubation, and subsequent comparison with controls were performed.” left out

## CNC(C)C1CCC(N)C(OC2C(N)CC(N)C(OC3OCC(C)(O)C(NC)C3O)C2O)O1 (stereo not shown) [Gen, Gentamicin, reference compound]
[1]
  MBC: 300 µM (≈ 143 µg/mL)
  MIC: 300 µM (≈ 143 µg/mL)
[2]
  MBC: 40 µM (≈ 19.1 µg/mL)
  MIC: 40 µM (≈ 19.1 µg/mL)
E. coli ATCC 25922
  MBC: 10 µM (≈ 4.78 µg/mL)
  MIC: 10 µM (≈ 4.78 µg/mL)
P. aeruginosa ATCC 27853
  MBC: 1200 µM (≈ 573 µg/mL)
  MIC: 12 µM (≈ 5.73 µg/mL)
P. mirabilis ATCC 35659
  MBC: 50 µM (≈ 23.9 µg/mL)
  MIC: 1 µM (≈ 0.478 µg/mL)
[3]
  MBC: 50 µM (≈ 23.9 µg/mL)
  MIC: 1 µM (≈ 0.478 µg/mL)
[4]; MRSA #1 clinical isolate
  MBC: 1600 µM (≈ 764 µg/mL)
  MIC: 100 µM (≈ 47.8 µg/mL)
[4]; MRSA #2 clinical isolate
  MBC: 200 µM (≈ 95.5 µg/mL)
  MIC: 50 µM (≈ 23.9 µg/mL)
[4]; MRSA #3 clinical isolate
  MBC: 50 µM (≈ 23.9 µg/mL)
  MIC: 50 µM (≈ 23.9 µg/mL)
[4]; MRSA #4 clinical isolate
  MBC: 50 µM (≈ 23.9 µg/mL)
  MIC: 50 µM (≈ 23.9 µg/mL)
[4]; MRSA #5 clinical isolate
  MBC: 6250 µM (≈ 2990 µg/mL)
  MIC: 800 µM (≈ 382 µg/mL)
[4]; MRSA #6 clinical isolate
  MBC: 25000 µM (≈ 11900 µg/mL)
  MIC: 3000 µM (≈ 1430 µg/mL)
[4]; MRSA #7 clinical isolate
  MBC: 1600 µM (≈ 764 µg/mL)
  MIC: 50 µM (≈ 23.9 µg/mL)
[4]; MRSA #8 clinical isolate
  MBC: 50 µM (≈ 23.9 µg/mL)
  MIC: 50 µM (≈ 23.9 µg/mL)
[4]; MRSA #9 clinical isolate
  MBC: 50 µM (≈ 23.9 µg/mL)
  MIC: 50 µM (≈ 23.9 µg/mL)
[4]; MRSA #10 clinical isolate
  MBC: 50 µM (≈ 23.9 µg/mL)
  MIC: 50 µM (≈ 23.9 µg/mL)

## O=C(O)c1cn(C2CC2)c2cc(N3CCNCC3)c(F)cc2c1=O [Cip, Ciprofloxacin, reference compound]
[1]
  MBC: 1200 µM (≈ 398 µg/mL)
  MIC: 1200 µM (≈ 398 µg/mL)
[2]
  MBC: 80 µM (≈ 26.5 µg/mL)
  MIC: 80 µM (≈ 26.5 µg/mL)
E. coli ATCC 25922
  MBC: 2 µM (≈ 0.663 µg/mL)
  MIC: 2 µM (≈ 0.663 µg/mL)
P. aeruginosa ATCC 27853
  MBC: 2400 µM (≈ 795 µg/mL)
  MIC: 61 µM (≈ 20.2 µg/mL)
P. mirabilis ATCC 35659
  MBC: 800 µM (≈ 265 µg/mL)
  MIC: 20 µM (≈ 6.63 µg/mL)
[3]
  MBC: 500 µM (≈ 166 µg/mL)
  MIC: 10 µM (≈ 3.31 µg/mL)

## O=C(Nc1ccc(Cl)cc1)Nc1ccc(Cl)c(C(F)(F)F)c1 [cloflucarban, 3-trifluoromethyl-4,4′-dichlorocarbanilide]
Gram-negative pathogens
  activity against Gram-negative pathogens: no activity
Gram-positive bacteria
  antibacterial action against Gram-positive bacteria: antibacterial action

## O=C(Nc1ccc(Cl)cc1)Nc1cc(S(F)(F)(F)(F)F)ccc1Cl [EBP-40, 1-(2-Chloro-5-(pentafluoro-λ^6-sulfanyl)phenyl)-3-(4-chlorophenyl)urea]
MRSA ATCC 33591
  MBC: 610 µM (≈ 248 µg/mL)
MRSA ATCC 33591; planktonic, overnight 37°C in MHB
  MIC: 150 µM (≈ 61.1 µg/mL)
[1]
  MBC: 900 µM (≈ 366 µg/mL)
  MIC: 1200 µM (≈ 489 µg/mL)
[2]
  MBC: 1200 µM (≈ 489 µg/mL)
  MIC: 480 µM (≈ 195 µg/mL)
P. mirabilis ATCC 35659
  MBC: 625 µM (≈ 254 µg/mL)
  MIC: 625 µM (≈ 254 µg/mL)
[3]
  MBC: > 5000 µM
  MIC: > 5000 µM
[4]; MRSA #1 clinical isolate
  MBC: 1200 µM (≈ 489 µg/mL)
  MIC: 20 µM (≈ 8.14 µg/mL)
[4]; MRSA #2 clinical isolate
  MBC: 40 µM (≈ 16.3 µg/mL)
  MIC: 20 µM (≈ 8.14 µg/mL)
[4]; MRSA #3 clinical isolate
  MBC: 160 µM (≈ 65.2 µg/mL)
  MIC: 80 µM (≈ 32.6 µg/mL)
[4]; MRSA #4 clinical isolate
  MBC: 160 µM (≈ 65.2 µg/mL)
  MIC: 40 µM (≈ 16.3 µg/mL)
[4]; MRSA #5 clinical isolate
  MBC: 40 µM (≈ 16.3 µg/mL)
  MIC: 20 µM (≈ 8.14 µg/mL)
[4]; MRSA #6 clinical isolate
  MBC: 160 µM (≈ 65.2 µg/mL)
  MIC: 40 µM (≈ 16.3 µg/mL)
[4]; MRSA #7 clinical isolate
  MBC: 80 µM (≈ 32.6 µg/mL)
  MIC: 40 µM (≈ 16.3 µg/mL)
[4]; MRSA #8 clinical isolate
  MBC: 80 µM (≈ 32.6 µg/mL)
  MIC: 40 µM (≈ 16.3 µg/mL)
[4]; MRSA #9 clinical isolate
  MBC: 80 µM (≈ 32.6 µg/mL)
  MIC: 20 µM (≈ 8.14 µg/mL)

## O=C(Nc1ccc(Cl)cc1)Nc1ccc(Cl)c(Cl)c1 [TCC, triclocarban]
Gram-negative pathogens
  activity against Gram-negative pathogens: no activity
Gram-positive bacteria
  antibacterial action against Gram-positive bacteria: antibacterial action

Source: article PMC11237694, “Novel pentafluorosulfanyl-containing triclocarban analogs selectively kill Gram-positive bacteria” (Microbiology Spectrum, 2024)
